# What was measured:
# [1] = tested on: zymostenol accumulation in EpiSC-derived OPCs (EBP); assay: GC/MS-based sterol profiling, zymostenol accumulation; format: cell-based, mouse; details: Mus musculus, 24 h, 8 doses from 0.15 nM to 333 nM, read-out: mZymo GCMS EC50
# Outline: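 EpiSC-derived mouse OPCs plated at 100,000 cells/well in N2B27 without growth factors and treated 24 h. Sterols extracted, silylated with BSTFA and measured by GC/MS (EI, full scan), quantified against cholesterol-d7. Zymostenol normalized to levels after 24 h with 100 nM positive control reference.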
# [2] = target: human emopamil binding protein and human 7-dehydrocholesterol reductase co-expressing cell membrane (Homo sapiens (Human), UniProt Q15125); assay: hEBP-DHCR7 radioligand filtration binding assay with [3H]-Compound 118A*; details: radioligand [3H]-Compound 118A*; HEK293 membrane co-expressing hEBP and DHCR7
# Chain of human emopamil binding protein and human 7-dehydrocholesterol reductase co-expressing cell membrane (Q15125 whole entry): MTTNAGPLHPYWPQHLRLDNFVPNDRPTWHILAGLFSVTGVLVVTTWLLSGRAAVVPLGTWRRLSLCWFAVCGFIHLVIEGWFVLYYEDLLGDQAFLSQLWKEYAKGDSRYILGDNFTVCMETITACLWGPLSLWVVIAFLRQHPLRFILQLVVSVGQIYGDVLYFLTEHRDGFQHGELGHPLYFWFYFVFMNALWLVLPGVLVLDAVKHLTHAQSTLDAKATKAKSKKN
# Outline: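 HEK293 membranes transiently co-expressing hEBP and hDHCR7 (10 μg/well) were incubated with [3H]-Compound 118A* (added at 25 nM) and compounds (8 doses, final 0.06–5000 nM, n=2) for 3 h at 22 °C. Bound radioactivity was read after PEI-treated GF/B filtration. IC50 came from a Hill fit of % inhibition and was converted to Ki.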
SMILES,EC50 [1],Ki [2]
"CCC(C)(C)c1ccc(CC(C)CN2CCC3(C2)CS(=O)(=O)C3)cc1 (racemic) [Compound 107, 6-(2-Methyl-3-(4-(tert-pentyl)phenyl)propyl)-2-thia-6-azaspiro[3.4]octane 2,2-dioxide]",9.5 nM,10.3 nM
"CC(Cc1ccc(C2CCC2)cc1)CN1CCC2(C1)CS(=O)(=O)C2 (racemic) [Compound 109A, 6-(3-(4-cyclobutylphenyl)-2-methylpropyl)-2-thia-6-azaspiro[3.4]octane 2,2-dioxide]",1.6 nM,12.5 nM
"COC(Cc1ccc(C(F)(F)F)cc1)CN1CCC2(C1)CS(=O)(=O)C2 (racemic) [Example 143, (S)-6-(2-Methoxy-3-(4-(trifluoromethyl)phenyl)propyl)-2-thia-6-azaspiro[3.4]octane 2,2-dioxide and (R)-6-(2-methoxy-3-(4-(trifluoromethyl)phenyl)propyl)-2-thia-6-azaspiro[3.4]octane 2,2-dioxide]",2.8 nM,12.6 nM
"C[C@@H](Cc1ccc(C(F)(F)F)cc1)CN1CCC2(C1)CS(=O)(=O)C2 (single isomer, unassigned) [114A*]",0.37 nM,18.3 nM
"C[C@H](Cc1ccc(C(F)(F)F)cc1)CN1CCC2(C1)CS(=O)(=O)C2 (single isomer, unassigned) [114B*]",0.82 nM,5.85 nM
"C[C@@H](Cc1ccc(C(F)(F)F)nc1)CN1CCC2(C1)CS(=O)(=O)C2 (single isomer, unassigned) [118A*]",2.4 nM,22.1 nM
"C[C@@H](Cc1cnc(C(F)(F)F)nc1)CN1CCC2(CC1)CS(=O)(=O)C2 (single isomer, unassigned) [215A*]",13 nM,105 nM
"C[C@H](Cc1cnc(C(F)(F)F)nc1)CN1CCC2(CC1)CS(=O)(=O)C2 (single isomer, unassigned) [215B*]",17 nM,136 nM
"C[C@@H](CN1CCC2(CC1)CS(=O)(=O)C2)Oc1ccc(F)c(F)c1 (single isomer, unassigned) [221A*]",1.6 nM,25.5 nM
"O=S1(=O)CC2(CCN(CC[C@H](F)c3ccc(C(F)(F)F)cc3)C2)C1 (single isomer, unassigned) [Compound 122B]",1.2 nM,13.7 nM
"C[C@@H](Cc1ccnc(C(F)(F)F)c1)CN1CCC2(C1)CS(=O)(=O)C2 (single isomer, unassigned) [Compound 126A]",3.8 nM,47.4 nM
"C[C@H](Cc1ccnc(C(F)(F)F)c1)CN1CCC2(C1)CS(=O)(=O)C2 (single isomer, unassigned) [Compound 126B]",14 nM,67.6 nM
"C[C@@H](Cc1ccc(C(F)F)cc1)CN1CCC2(C1)CS(=O)(=O)C2 (single isomer, unassigned) [Compound 128A]",23 nM,29.6 nM
"CC(C)(CN1CC[C@@]2(CCS(=O)(=O)C2)C1)Oc1ccc(C(F)(F)F)cc1 (single isomer, unassigned) [Compound 141A]",5.5 nM,25.6 nM
"CC(C)(CN1CC[C@]2(CCS(=O)(=O)C2)C1)Oc1ccc(C(F)(F)F)cc1 (single isomer, unassigned) [Compound 141B]",49 nM,58.4 nM
"C[C@@H](Cc1cnc(C(F)(F)F)nc1)CN1CCC2(C1)CS(=O)(=O)C2 (single isomer, unassigned) [Compound 145A]",8.1 nM,69.1 nM
"CC(C)(Cc1ccc(C(F)(F)F)nc1)CN1CC[C@@]2(CCS(=O)(=O)C2)C1 (single isomer, unassigned) [Compound 148B]",7.2 nM,28.6 nM
"O=S1(=O)CC2(CCN(CCOc3ccc(C(F)(F)F)cc3)C2)C1 [Compound 112, 6-(2-(4-(Trifluoromethyl)phenoxy)ethyl)-2-thia-6-azaspiro[3.4]octane-2,2-dioxide]",1.3 nM,13.5 nM
"O=S1(=O)CC2(CCN(CCOc3ccc(C(F)(F)F)nc3)CC2)C1 [Compound 230, 7-(2-((6-(Trifluoromethyl)pyridin-3-yl)oxy)ethyl)-2-thia-7-azaspiro[3.5]nonane 2,2-dioxide]",11 nM,749 nM
"CC(C)(CN1CCC2(C1)CS(=O)(=O)C2)Oc1ccc(C2CCC2)cc1 [Example 129, 6-(2-(4-Cyclobutylphenoxy)-2-methylpropyl)-2-thia-6-azaspiro[3.4]octane-2,2-dioxide]",19 nM,11.8 nM
"CC(C)(CN1CCC2(C1)CS(=O)(=O)C2)Oc1cccc(C(F)(F)F)c1 [Example 130, 6-(2-Methyl-2-(3-(trifluoromethyl)phenoxy)propyl)-2-thia-6-azaspiro[3.4]octane-2,2-dioxide]",2.9 nM,13.2 nM
"CC(C)(CN1CCC2(C1)CS(=O)(=O)C2)Oc1cccc(OC(F)(F)F)c1 [Example 131, 6-(2-Methyl-2-(3-(trifluoromethoxy)phenoxy)propyl)-2-thia-6-azaspiro[3.4]octane 2,2-dioxide]",1.6 nM,118 nM
"CC(C)(CN1CCC2(C1)CS(=O)(=O)C2)Oc1ccc(C(F)(F)F)nc1 [Example 135, 6-(2-Methyl-2-((6-(trifluoromethyl)pyridin-3-yl)oxy)propyl)-2-thia-6-azaspiro[3.4]octane-2,2-dioxide]",32 nM,39.6 nM
"CC(C)(CN1CCC2(C1)CS(=O)(=O)C2)Oc1ccc(OC(F)(F)F)cc1 [Example 136, 6-(2-Methyl-2-(4-(trifluoromethoxy)phenoxy)propyl)-2-thia-6-azaspiro[3.4]octane 2,2-dioxide]",3.6 nM,14.2 nM
"CC(C)(CN1CCC2(CC1)CS(=O)(=O)C2)Oc1ccc(C(F)(F)F)cc1 [Example 138, 7-(2-Methyl-2-(4-(trifluoromethyl)phenoxy)propyl)-2-thia-7-azaspiro[3.5]nonane 2,2-dioxide]",1 nM,5.04 nM
"CC(C)(Cc1ccc(C2CCC(F)(F)CC2)c(Cl)c1)CN1CCC2(C1)CS(=O)(=O)C2 [Example 139, 6-(3-(3-Chloro-4-(4,4-difluorocyclohexyl)phenyl)-2,2-dimethylpropyl)-2-thia-6-azaspiro[3.4]octane 2,2-dioxide]",1.6 nM,9.23 nM
"CC(C)(Cc1ccc(C(F)(F)F)nc1)CN1CCC2(C1)CS(=O)(=O)C2 [Example 140, 6-(2,2-Dimethyl-3-(6-(trifluoromethyl)pyridin-3-yl)propyl)-2-thia-6-azaspiro[3.4]octane-2,2-dioxide]",2.1 nM,19.9 nM
"CC(C)(CN1CCC2(C1)CS(=O)(=O)C2)Oc1cnc(C(F)(F)F)nc1 [Example 144, 6-(2-Methyl-2-((2-(trifluoromethyl)pyrimidin-5-yl)oxy)propyl)-2-thia-6-azaspiro[3.4]octane-2,2-dioxide]",80 nM,96.6 nM
"O=S1(=O)CC2(CCN(CC3(Cc4ccc(C(F)(F)F)nc4)CC3)C2)C1 [Example 157, 6-((1-((6-(Trifluoromethyl)pyridin-3-yl)methyl)cyclopropyl)methyl)-2-thia-6-azaspiro[3.4]octane 2,2-dioxide]",12 nM,17.2 nM
"O=S1(=O)CCC2(CC1)CN(CCOc1ccc(C(F)(F)F)cc1)C2 [Example 201, 2-(2-(4-(Trifluoromethyl)phenoxy)ethyl)-7-thia-2-azaspiro[3.5]nonane 7,7-dioxide]",3.2 nM,25.7 nM

# — patent publication US20240400579A1, “SPIROCYCLIC MODULATORS OF CHOLESTEROL BIOSYNTHESIS AND THEIR USE FOR PROMOTING REMYELINATION” (GENENTECH, INC., priority 2021, published 2024)
